Experimental data from PubChem BioAssay (NCI).
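Abbreviation: GI50, concentration required for 50% inhibition of growth. TGI marks complete inhibition of growth.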

How the values were obtained:
Assay in all cases: growth of human tumour cells (NCI), 384-well format
ACHN renal = system: ACHN renal
MCF7 breast = system: MCF7 breast
HCT-15 colon = system: HCT-15 colon
U251 glioblastoma = system: U251 glioblastoma
SK-MEL-28 melanoma = system: SK-MEL-28 melanoma
HL-60(TB) leukemia = system: HL-60(TB) leukemia
MDA-MB-231 breast = system: MDA-MB-231 breast
BT-549 breast = system: BT-549 breast
CCRF-CEM leukemia = system: CCRF-CEM leukemia
MOLT-4 leukemia = system: MOLT-4 leukemia
COLO 205 colon = system: COLO 205 colon
SR leukemia = system: SR leukemia
HCT-116 colon = system: HCT-116 colon
RPMI-8226 leukemia = system: RPMI-8226 leukemia
MALME-3M melanoma = system: MALME-3M melanoma
OVCAR-8 ovarian = system: OVCAR-8 ovarian
UO-31 renal = system: UO-31 renal
HOP-92 NSCLC = system: HOP-92 NSCLC
IGROV1 ovarian = system: IGROV1 ovarian
SN12C renal = system: SN12C renal
DU-145 prostate = system: DU-145 prostate
SF-268 CNS = system: SF-268 CNS
SF-295 CNS = system: SF-295 CNS
UACC-62 melanoma = system: UACC-62 melanoma
NCI-H226 lung = system: NCI-H226 lung
NCI-H522 lung = system: NCI-H522 lung
M14 melanoma = system: M14 melanoma
RXF 393 renal = system: RXF 393 renal

With `COc1cc2c(cc1O)CCN[C@]21CS[C@@H]2c3c(OC(C)=O)c(C)c4c(c3[C@H](COC1=O)N1[C@@H]2[C@H]2c3c(cc(C)c(OC)c3O)C[C@@H]([C@@H]1O)N2C)OCO4` as the compound, how does the GI50 (ACHN renal) read?
Its GI50 is 0.685 nM.

What about the TGI (ACHN renal) of the same compound?
Its TGI is 2.24 nM.

What about the GI50 (MCF7 breast) of the same compound?
Its GI50 is 0.447 nM.

What about the TGI (MCF7 breast) of the same compound?
Its TGI is 5.54 nM.

And the GI50 (HCT-15 colon)?
Its GI50 is 0.595 nM.

And the TGI (HCT-15 colon)?
The TGI was 5.24 nM.

What about the GI50 (U251 glioblastoma) of the same compound?
Its GI50 is 0.17 nM.

What about the TGI (U251 glioblastoma) of the same compound?
The TGI was 0.842 nM.

What about the GI50 (SK-MEL-28 melanoma) of the same compound?
Its GI50 is 0.459 nM.

What about the TGI (SK-MEL-28 melanoma) of the same compound?
Its TGI is 0.888 nM.

And the GI50 (HL-60(TB) leukemia)?
Its GI50 is 0.0567 nM.

What about the TGI (HL-60(TB) leukemia) of the same compound?
The TGI was 0.105 nM.

What about the GI50 (MDA-MB-231 breast) of the same compound?
The GI50 was 1 nM.

And the TGI (MDA-MB-231 breast)?
Its TGI is 2.56 nM.

What about the GI50 (BT-549 breast) of the same compound?
Its GI50 is 0.0545 nM.

And the TGI (BT-549 breast)?
The TGI was 0.124 nM.

What about the GI50 (CCRF-CEM leukemia) of the same compound?
The GI50 was 0.0203 nM.

And the TGI (CCRF-CEM leukemia)?
The TGI was 0.0389 nM.

What about the GI50 (MOLT-4 leukemia) of the same compound?
Its GI50 is 0.0228 nM.

What about the TGI (MOLT-4 leukemia) of the same compound?
Its TGI is 0.0638 nM.

And the GI50 (COLO 205 colon)?
The GI50 was 0.433 nM.

And the TGI (COLO 205 colon)?
Its TGI is 0.882 nM.

And the GI50 (SR leukemia)?
The GI50 was 0.0313 nM.

What about the TGI (SR leukemia) of the same compound?
Its TGI is 0.0728 nM.

What about the GI50 (HCT-116 colon) of the same compound?
Its GI50 is 0.653 nM.

And the GI50 (RPMI-8226 leukemia)?
The GI50 was 0.0686 nM.

And the TGI (RPMI-8226 leukemia)?
The TGI was 0.153 nM.

What about the GI50 (MALME-3M melanoma) of the same compound?
The GI50 was 0.136 nM.

And the TGI (MALME-3M melanoma)?
Its TGI is 0.37 nM.

What about the GI50 (OVCAR-8 ovarian) of the same compound?
Its GI50 is 0.169 nM.

And the TGI (OVCAR-8 ovarian)?
The TGI was 0.555 nM.

What about the GI50 (UO-31 renal) of the same compound?
The GI50 was 0.514 nM.

And the TGI (UO-31 renal)?
Its TGI is 0.962 nM.

What about the GI50 (HOP-92 NSCLC) of the same compound?
Its GI50 is 0.0211 nM.

What about the TGI (HOP-92 NSCLC) of the same compound?
The TGI was 0.0954 nM.

And the GI50 (IGROV1 ovarian)?
Its GI50 is 0.885 nM.

And the TGI (IGROV1 ovarian)?
Its TGI is 8.12 nM.

What about the GI50 (SN12C renal) of the same compound?
The GI50 was 0.133 nM.

And the TGI (SN12C renal)?
The TGI was 0.715 nM.

What about the GI50 (DU-145 prostate) of the same compound?
The GI50 was 0.31 nM.

And the TGI (DU-145 prostate)?
Its TGI is 0.84 nM.

What about the GI50 (SF-268 CNS) of the same compound?
The GI50 was 0.121 nM.

And the TGI (SF-268 CNS)?
Its TGI is 0.542 nM.

And the GI50 (SF-295 CNS)?
The GI50 was 0.0877 nM.

And the TGI (SF-295 CNS)?
Its TGI is 0.299 nM.

And the GI50 (UACC-62 melanoma)?
Its GI50 is 0.099 nM.

And the TGI (UACC-62 melanoma)?
Its TGI is 0.371 nM.

What about the GI50 (NCI-H226 lung) of the same compound?
The GI50 was 0.0901 nM.

And the TGI (NCI-H226 lung)?
Its TGI is 0.359 nM.

And the GI50 (NCI-H522 lung)?
Its GI50 is 0.11 nM.

What about the TGI (NCI-H522 lung) of the same compound?
The TGI was 0.447 nM.

What about the GI50 (M14 melanoma) of the same compound?
Its GI50 is 0.0865 nM.

And the TGI (M14 melanoma)?
Its TGI is 0.237 nM.

What about the GI50 (RXF 393 renal) of the same compound?
The GI50 was 0.0747 nM.

And the TGI (RXF 393 renal)?
The TGI was 0.209 nM.
